Source: publication PMC11427300, “Cryptic enzymatic assembly of peptides armed with β-lactone warheads” (Nature Chemical Biology, 2024)

What was measured:
Format in all cases: biochemical
CysF [1] = molecular target: T1, CysF (Kitasatospora cystarginea, UniProt A0A1W6R555); test: LC-MS, hydroxylamine trapping as hydroxamic acid […]; settings: ATP, adenylation only, no lactone formed
T1 construct: C-terminal His tag (pET21-a(+)), E. coli; 8RA0 is the apo structure, residues 1-491 mentioned
T1 sequence (A0A1W6R555 1-491): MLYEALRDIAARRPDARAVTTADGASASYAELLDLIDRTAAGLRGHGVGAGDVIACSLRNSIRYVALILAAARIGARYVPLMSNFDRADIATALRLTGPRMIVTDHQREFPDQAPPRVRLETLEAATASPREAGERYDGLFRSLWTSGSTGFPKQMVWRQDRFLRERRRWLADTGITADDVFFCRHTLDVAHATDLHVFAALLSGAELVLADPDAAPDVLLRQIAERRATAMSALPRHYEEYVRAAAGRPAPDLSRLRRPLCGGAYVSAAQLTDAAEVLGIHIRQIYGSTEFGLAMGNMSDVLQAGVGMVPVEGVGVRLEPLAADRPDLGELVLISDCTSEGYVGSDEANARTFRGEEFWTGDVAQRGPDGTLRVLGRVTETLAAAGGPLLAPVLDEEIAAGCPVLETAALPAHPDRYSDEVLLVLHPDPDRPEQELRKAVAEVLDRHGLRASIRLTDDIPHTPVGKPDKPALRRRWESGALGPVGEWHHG

CysG = molecular target: T2, CysG (Kitasatospora cystarginea, UniProt A0A1W6R556); test: LC-MS and NMR product analysis; settings: MgCl2, phosphate pH 7.8, 25 °C
T2 construct: C-terminal His tag (pET28-a(+)), E. coli BL21(DE3)
T2 sequence (A0A1W6R556 1-228): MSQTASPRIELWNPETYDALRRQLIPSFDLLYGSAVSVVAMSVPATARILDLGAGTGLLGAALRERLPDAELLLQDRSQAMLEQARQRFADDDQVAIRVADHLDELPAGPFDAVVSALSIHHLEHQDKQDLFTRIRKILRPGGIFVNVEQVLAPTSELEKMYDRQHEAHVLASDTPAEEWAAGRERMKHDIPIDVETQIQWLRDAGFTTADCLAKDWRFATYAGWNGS

CysF [2] = molecular target: T1, CysF; test: GC-MS and 1H NMR product analysis; settings: ATP, MgCl2, phosphate pH 7.8, 25 °C; β-lactonization to 3a
BhCysFE = molecular target: T3, BhCysFE (Bradyrhizobium huanghuaihaiense, UniProt A0A562R406); test: LC-MS
T3 construct: gene IQ16_06114; natural fusion (CysF-like aa 1-487, linker ATPVNMR, CysE-like aa 495-768), C-terminal His tag (pET28-a(+)), E. coli
T3 sequence (A0A562R406 1-768): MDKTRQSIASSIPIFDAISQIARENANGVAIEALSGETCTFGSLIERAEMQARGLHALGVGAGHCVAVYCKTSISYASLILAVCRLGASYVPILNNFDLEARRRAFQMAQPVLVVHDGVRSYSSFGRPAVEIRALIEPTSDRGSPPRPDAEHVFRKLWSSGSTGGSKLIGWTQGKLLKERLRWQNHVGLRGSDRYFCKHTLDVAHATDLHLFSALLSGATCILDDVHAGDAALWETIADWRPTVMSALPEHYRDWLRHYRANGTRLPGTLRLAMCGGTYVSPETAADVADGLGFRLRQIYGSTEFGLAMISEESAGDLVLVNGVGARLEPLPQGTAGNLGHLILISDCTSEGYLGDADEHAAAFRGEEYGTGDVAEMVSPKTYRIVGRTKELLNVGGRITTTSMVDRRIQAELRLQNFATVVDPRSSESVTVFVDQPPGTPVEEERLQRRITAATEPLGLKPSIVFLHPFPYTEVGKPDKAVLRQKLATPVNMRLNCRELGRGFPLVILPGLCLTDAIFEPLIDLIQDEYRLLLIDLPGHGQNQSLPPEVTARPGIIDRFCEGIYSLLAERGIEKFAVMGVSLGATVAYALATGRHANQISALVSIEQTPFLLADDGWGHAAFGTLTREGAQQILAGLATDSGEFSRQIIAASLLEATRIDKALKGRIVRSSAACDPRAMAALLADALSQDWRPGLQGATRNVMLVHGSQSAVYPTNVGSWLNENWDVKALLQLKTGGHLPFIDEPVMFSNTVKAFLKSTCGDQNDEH

BelH = molecular target: T4, BelH (Streptomyces sp., UniProt A0A1W6R584); test: LC-MS and GC-MS, cascade assay with BelI or BelR; settings: ATP, MgCl2, phosphate pH 7.8, 25 °C; β-lactonization to 3b
T4 construct: N-terminal His tag (pET28-a(+)), E. coli BL21(DE3)
T4 sequence (A0A1W6R584 1-491): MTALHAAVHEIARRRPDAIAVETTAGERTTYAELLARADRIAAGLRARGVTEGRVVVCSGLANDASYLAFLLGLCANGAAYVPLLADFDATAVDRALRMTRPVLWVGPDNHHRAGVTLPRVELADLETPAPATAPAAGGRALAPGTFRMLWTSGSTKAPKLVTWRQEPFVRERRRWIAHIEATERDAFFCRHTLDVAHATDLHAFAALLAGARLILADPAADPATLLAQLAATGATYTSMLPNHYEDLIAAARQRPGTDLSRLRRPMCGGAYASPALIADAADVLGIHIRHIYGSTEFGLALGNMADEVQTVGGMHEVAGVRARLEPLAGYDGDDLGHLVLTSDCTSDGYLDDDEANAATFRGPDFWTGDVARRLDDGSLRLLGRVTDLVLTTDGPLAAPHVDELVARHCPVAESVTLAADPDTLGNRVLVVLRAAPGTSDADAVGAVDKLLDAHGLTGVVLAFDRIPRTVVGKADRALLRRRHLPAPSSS

CysE = molecular target: T5, CysE (Kitasatospora cystarginea, UniProt A0A1W6R564); test: LC-MS, tandem assay with CysF; settings: 3a generated in situ from 2a by CysF and ATP; MgCl2, phosphate pH 7.8, 25 °C
T5 construct: C-terminal His tag (pET28-a(+)), E. coli BL21(DE3)
T5 sequence (A0A1W6R564 1-271): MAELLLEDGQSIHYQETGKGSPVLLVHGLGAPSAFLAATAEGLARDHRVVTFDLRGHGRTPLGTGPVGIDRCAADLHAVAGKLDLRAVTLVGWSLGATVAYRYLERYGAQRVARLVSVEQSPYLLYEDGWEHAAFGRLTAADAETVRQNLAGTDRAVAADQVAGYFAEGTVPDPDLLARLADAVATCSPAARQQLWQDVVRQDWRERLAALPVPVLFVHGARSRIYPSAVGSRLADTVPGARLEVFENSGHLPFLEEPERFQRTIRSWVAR

Compound: CC(C)[C@H](C(=O)O)[C@@H](O)C(=O)O [1a, malic acid 1a]
- LC-MS, hydroxylamine trapping as hydroxamic acid 10 (CysF [1]): CysF can efficiently activate the C4-carboxyl of 1a
- LC-MS and NMR product analysis (CysG; SAM, C1-carboxylate methylated): CysG exclusively produced the C1-methyl ester 2a from 1a and SAM

Compound: COC(=O)[C@H](O)[C@@H](C(=O)O)C(C)C [2a, C1-methyl ester 2a]
- GC-MS and 1H NMR product analysis (CysF [2]): 2a was again consumed in the CysF reaction with ATP
- LC-MS (BhCysFE; ATP, lactonization and ester hydrolysis to 4a): incubated with 2a and ATP, leading to a quantitative production of 4a

Compound: CCC(C)[C@H](C(=O)O)[C@@H](O)C(=O)OC (some centres unmarked) [2b]
- LC-MS and GC-MS, cascade assay with BelI or BelR (BelH): GC-MS analysis of the CysGF and BelIH cascade confirmed the formation of 3a/b

Compound: COC(=O)[C@@H]1OC(=O)[C@H]1C(C)C [3a, β-lactone methyl ester 3a]
- LC-MS, tandem assay with CysF (CysE): tandem reaction with CysF and CysE, including ATP, resulted in the β-lactone carboxylic acid 4a

Compound: C[S+](CC[C@H](N)C(=O)O)C[C@H]1O[C@@H](n2cnc3c(N)ncnc32)[C@H](O)[C@@H]1O (some centres unmarked) [S-adenosyl methionine]
- LC-MS and NMR product analysis (CysG; co-substrate 1a): CysG exclusively produced the C1-methyl ester 2a from 1a and SAM

Compound: Nc1ncnc2c1ncn2[C@@H]1O[C@H](COP(=O)(O)OP(=O)(O)OP(=O)(O)O)[C@@H](O)[C@H]1O [adenosine triphosphate]
- LC-MS (BhCysFE; co-substrate 2a): incubated with 2a and ATP, leading to a quantitative production of 4a
